Results as given in patent US20260355142A1, “AMORPHOUS OTE[…] COMPOSITIONS AND USES THEREOF AND DOSAGE REGIMENS FOR OTENAPROXESUL” (ANTIBE THERAPEUTICS INC., priority 2022, published 2026).

Legend:
TXB2 = assay: Pharmacodynamics in Beagle dogs, plasma TXB2; assay type: in vivo; settings: 15 mg/kg, Day 1 and Day 4 pre-treatment
Method: The pharmacokinetics of five different formulations of otenaproxesul (formerly ATB-346) were evaluated in Beagle dogs. Five groups of dogs (n=3/group) were orally administered their assigned formulations once daily for four days. Blood samples were taken for a full 24-hour PK profile on Day 1 and on Day 4.
Group 1 was administered crystalline otenaproxesul, Group 2 was administered milled crystalline otenaproxesul, Group 3 was administered micro-milled crystalline otenaproxesul, Group 4 was administered exemplary ASD no. 1 (see Example 7A above) and Group 5 was administered exemplary ASD no. 4 (see Example 7A above). Dose administered was 15 mg/kg (human equivalent dose of 525 mg).
Pharmacodynamic assessment of TXB2 and PGE2 plasma concentrations were assessed on: • Day 1, one hour post treatment • Day 1, 12 hours post treatment • Day 4, pre-treatment • Day 4, one hour post treatment • Day 4, 12 hours post treatment.

[1] = Rat pharmacokinetics of otenaproxesul amorphous dispersion (Example 19); assay type: in vivo, Rats; settings: HED 260 mg once daily
Method: Rats were administered five treatment doses of the otenaproxesul amorphous solid dispersion (i.e., exemplary ASD no. 1 (35% drug: 65% polymer by weight)) and a crystalline otenaproxesul control dose. […] One group of rats was administered a human equivalent dose of 208 mg twice daily (416 mg total daily dose). Crystalline otenaproxesul was administered at the no observed adverse effect level (NOAEL) dose equivalent to a human dose of 260 mg once daily.
Pharmacokinetic data was evaluated on M25 plasma naproxen concentrations at 60 minutes post administration, Day 1 M25 plasma exposure (AUC0-24) and Day 4 M25 plasma exposure (AUC0-Last). Assessment of dose proportional characteristics for both M25 plasma concentration and AUC exposure were measured.
The human equivalent dose (HED) is related to the administered rat dose by an allometric scaling formula, for example: HED (mg)=([rat dose in mg/kg×0.16]×65 kg).

[2] = H2S release / formulation stability in simulated intestinal fluid; settings: SIF, 1 mg/ml, 37° C., 5% CO2
Method: Assay design: 1 mg of exemplary ASD no. 1 and crystalline otenaproxesul were weighed in separate glass vials. SIF was added to prepare a 1 mg/ml solution which was incubated at 37° C. with 5% CO2. 120 μl was removed at 0.5, 1, 2, 3, 4 and 8 hrs and quenched in DPD (N,N-dimethyl-p-phenylenediamine sulfate) and FeCl3 solutions. A calibration curve was prepared to quantify amount of H2S released. A blank and 10 mM stock was also analyzed. The methylene blue was analyzed using HPLC.

[3] = Phase 1 SAD clinical trial, plasma naproxen (M25) levels; assay type: in vivo, human; settings: single oral dose of about 1500 mg to 2000 mg
Method: Otenaproxesul (crystalline form) was orally administered at a range of doses to healthy volunteers, both as a single dose, and as a daily (or twice-daily) dose for 14 days. Each cohort consisted of 8 subjects, with 6 receiving otenaproxesul and 2 receiving placebo. A total of 8 cohorts were studied in the single-dose study (25 mg, 75 mg, 150 mg, 300 mg, 500 mg, 1000 mg, 1500 mg and 2000 mg), and 3 cohorts in the multiple-dose study (250 and 750 once daily, and 750 mg bid (e.g., 1500 mg/day) for 14 days). All adverse events were recorded, and blood samples were drawn prior to and for at least 72 h after drug administration for measurement of otenaproxesul-derived naproxen levels. Routine cardiovascular, renal, hepatic and hematological biomarkers were monitored, along with clinical signs. […]
It is noted from the pharmacokinetic curves in FIG. 1 showing naproxen metabolite (M25) plasma levels following single dose crystalline otenaproxesul administrations in healthy subjects from the Phase 1 single ascending dose (SAD) study in Example 1, the time to attain maximal plasma concentration of M25 varies widely between 6 and 48 hours across the dosage spectrum. […] Therefore, while not being bound by theory, a single 2000 mg treatment is predicted to provide pain relief for 3 days and possibly to 5 days based upon measured and projected M25 plasma concentrations. […]

liver transaminases = assay: 28-day PK/PD and AME clinical study in healthy older adults, liver transaminase elevations; assay type: in vivo, human; settings: 100 mg cohort, full drug administration period
Method: The study was designed in part on the observation that across the otenaproxesul treatment groups, treatment-related >3×ULN (“upper limit of normal”) ALT and/or AST transaminase levels were noted (almost exclusively after the 14-day dosing interval) in 9.8% (6/61) of patients in the 150 mg arm, 7.2% (9/125) of patients in the 200 mg arm and 12.9% (17/132) patients in the 250 mg arm, with this issue being substantially biased towards females),
In this clinical trial, 28-day human safety/PK data was generated to complement the 14-day DRF data from Example 2. Biomarker data/dose (e.g., thromboxane B2) were also generated using standard ELISA assay kits.
Otenaproxesul was supplied as 75 mg, 100 mg and 125 mg, brown, film-coated tablets and was in crystalline form. Patients were instructed to take 1 tablet of otenaproxesul in the morning after an overnight fast. Food intake was restricted until at least 30 minutes after the morning dose.
The study enrolled a total of 42 subjects on either a 75 mg or 100 mg dose per day of otenaproxesul, of whom 35 had completed the 28-day drug administration period, with seven subjects having been administered the drug for 21 days before the study was paused. […]

AUC increase between Day 1 and Day 4 ([1]; female rats)	AUC increase between Day 1 and Day 4 ([1]; male rats)	H2S release ([2]; 0.5 hrs)	H2S release ([2]; 1 hr)	H2S release ([2]; 2 hrs)	H2S release ([2]; 3 hrs)	H2S release ([2]; 4 hrs)	H2S release ([2]; 8 hrs)	duration of plasma naproxen metabolite greater than about 10 μg/mL [3]	subjects with liver transaminase elevations exceeding five times the upper limit of normal (liver transaminases)	SMILES	inhibition of TXB2 relative to ASDs (TXB2)
60%	30%	0.7 µM	0.7 µM	1.2 µM	2.2 µM	3.7 µM	8.5 µM			COc1ccc2cc([C@H](C)C(=O)Oc3ccc(C(N)=S)cc3)ccc2c1 [crystalline otenaproxesul]	inhibition of TXB2 was lower
								over 72 hours	Three	COc1ccc2cc([C@H](C)C(=O)Oc3ccc(C(N)=S)cc3)ccc2c1 [otenaproxesul, (S)-4-carbamothioylphenyl 2-(6-methoxynaphthalen-2-yl) propanoate]	
